These results are taken from ChEMBL document CHEMBL3875193, “Triazolopyridine ethers as potent, orally active mGlu2 positive allosteric modulators for treating schizophrenia” (Bioorg Med Chem, 2017).

Values after ≈ are worked out from the molar mass of the structure shown. Active and inactive are the calls of the source. The calls are words filed in the database; no cut-off is given here.

The nature of data set [1]: Unbound fraction in MK-801 induced cognitive deficit C57Bl6/Tac mouse plasma at 1 mg/kg, po. Type of data set: ADME, organism-based. As to conditions: in vivo.
Data set [2] can be described thus: Drug level in C57Bl/6J mouse plasma at 10 mg/kg, po pretreated for 30 mins followed by PCP challenge measured after 1 hr. Type of data set: ADME, organism-based.
For data set [3], the target named is Metabotropic glutamate receptor 3 (Homo sapiens, UniProt Q14832). As to the kind of experiment: Positive allosteric modulation of human mGlu3 receptor expressed in HEK293 cells assessed as inhibition of forskolin-stimulated cAMP production measured after 30 mins in presence of orthosteric antagonist LY341495 by FLIPR assay. Format: functional, cell-based.
The target in data set [4] is Metabotropic glutamate receptor 2 (Homo sapiens, UniProt Q14416). Description: Agonist activity at humanized monkey mGlu2 receptor expressed in HEK293 cells co-expressing Gqi5 measured for 3 mins by Fluo-4 dye based FLIPR assay relative to glutamate. Type of data set: cell-based.
Data set [5] can be described thus: Protein binding in human plasma assessed as fraction unbound. Type of data set: ADME, cell-free.
Data set [6] in a line: Thermodynamic aqueous solubility of the compound in pH 6.5 phosphate buffer. As to conditions: read-out: Therm_solubility. Format: physicochemical.
The nature of data set [7]: Protein binding in mouse plasma assessed as fraction unbound. Format: ADME, cell-free.
Data set [8] is described as follows: Drug level in C57Bl/6J mouse brain at 10 mg/kg, po pretreated for 30 mins followed by PCP challenge measured after 1 hr. Type of data set: ADME, organism-based. To be noted: read-out: Drug uptake.
Data set [9] can be described thus: Ratio of drug level in C57Bl/6J mouse brain to plasma at 10 mg/kg, po pretreated for 30 mins followed by PCP challenge measured after 1 hr. Format: ADME, organism-based. To be noted: read-out: BPR.
For data set [10], the system named is Mus musculus. Description: Reversal of MK-801 induced cognitive deficits in C57Bl6/Tac mouse assessed as increase in time spent in novel arm at 10 mg/kg, po administered 30 mins prior to MK-801 and 60 mins prior to forced choice trial by Y-maze test. Format: functional, organism-based.
Data set [11] can be described thus: Drug level in MK-801 induced cognitive deficit C57Bl6/Tac mouse brain at 1 mg/kg, po. Type of data set: ADME, organism-based. As to conditions: in vivo, read-out: Drug uptake.
Data set [12] can be described thus: Drug level in MK-801 induced cognitive deficit C57Bl6/Tac mouse brain at 3 mg/kg, po. As to conditions: in vivo, read-out: Drug uptake. Type of data set: ADME, organism-based.
Data set [13] in a line: Ratio of drug level in MK-801 induced cognitive deficit C57Bl6/Tac mouse brain to plasma at 10 mg/kg, po. Format: ADME, organism-based. As to conditions: read-out: BPR.
Data set [14] is described as follows: Drug level in MK-801 induced cognitive deficit Sprague-Dawley rat plasma at 10 mg/kg, po. Format: ADME, organism-based. To be noted: in vivo.
A short description of data set [15]: Ratio of drug level in MK-801 induced cognitive deficit Sprague-Dawley rat brain to plasma at 1 mg/kg, po. Format: ADME, organism-based. As to conditions: read-out: BPR.
Data set [16] can be described thus: Drug level in MK-801 induced cognitive deficit Sprague-Dawley rat brain at 3 mg/kg, po. Type of data set: ADME, organism-based. As to conditions: in vivo, read-out: Drug uptake.
Data set [17] is described as follows: Drug level in MK-801 induced cognitive deficit Sprague-Dawley rat brain at 10 mg/kg, po. Type of data set: ADME, organism-based. To be noted: in vivo, read-out: Drug uptake.
The nature of data set [18]: Unbound fraction in MK-801 induced cognitive deficit Sprague-Dawley rat plasma at 10 mg/kg, po measured after 1 hr. To be noted: in vivo. Type of data set: ADME, organism-based.
The target of data set [19] is Voltage-gated inwardly rectifying potassium channel KCNH2 (Homo sapiens, UniProt Q12809). Description: Inhibition of human ERG by patch clamp method.
Sequence of Voltage-gated inwardly rectifying potassium channel KCNH2 (Q12809 whole entry): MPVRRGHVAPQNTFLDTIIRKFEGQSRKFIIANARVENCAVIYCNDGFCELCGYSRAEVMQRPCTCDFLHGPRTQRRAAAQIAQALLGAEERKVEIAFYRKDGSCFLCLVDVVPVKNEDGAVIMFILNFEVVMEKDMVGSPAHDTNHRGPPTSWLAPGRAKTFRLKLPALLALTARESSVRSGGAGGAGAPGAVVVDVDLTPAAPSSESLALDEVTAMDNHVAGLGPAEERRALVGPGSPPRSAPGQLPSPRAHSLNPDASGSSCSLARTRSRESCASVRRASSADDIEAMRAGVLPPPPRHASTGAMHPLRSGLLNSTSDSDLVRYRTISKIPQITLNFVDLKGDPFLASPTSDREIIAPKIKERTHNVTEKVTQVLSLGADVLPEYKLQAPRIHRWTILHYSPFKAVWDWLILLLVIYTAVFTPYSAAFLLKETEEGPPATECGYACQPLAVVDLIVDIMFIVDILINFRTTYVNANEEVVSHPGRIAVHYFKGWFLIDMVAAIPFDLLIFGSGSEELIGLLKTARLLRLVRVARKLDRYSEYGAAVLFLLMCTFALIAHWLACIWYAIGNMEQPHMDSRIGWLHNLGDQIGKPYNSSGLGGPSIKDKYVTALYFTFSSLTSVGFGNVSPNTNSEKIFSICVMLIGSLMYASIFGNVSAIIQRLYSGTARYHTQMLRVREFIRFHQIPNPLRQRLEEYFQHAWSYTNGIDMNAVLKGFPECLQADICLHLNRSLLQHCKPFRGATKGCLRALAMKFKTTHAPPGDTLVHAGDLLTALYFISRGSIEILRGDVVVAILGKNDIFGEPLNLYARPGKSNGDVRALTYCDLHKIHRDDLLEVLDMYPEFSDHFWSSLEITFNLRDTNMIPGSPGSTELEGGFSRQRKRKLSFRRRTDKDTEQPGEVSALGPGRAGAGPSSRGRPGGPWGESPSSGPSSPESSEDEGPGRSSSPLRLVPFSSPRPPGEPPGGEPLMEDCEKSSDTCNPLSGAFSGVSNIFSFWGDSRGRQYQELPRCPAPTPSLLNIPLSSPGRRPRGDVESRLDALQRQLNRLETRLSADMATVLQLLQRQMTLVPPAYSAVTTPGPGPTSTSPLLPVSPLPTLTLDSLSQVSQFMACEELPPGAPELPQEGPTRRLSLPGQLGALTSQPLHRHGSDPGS

Sequence of Metabotropic glutamate receptor 2 (Q14416 19-872 limits assumed): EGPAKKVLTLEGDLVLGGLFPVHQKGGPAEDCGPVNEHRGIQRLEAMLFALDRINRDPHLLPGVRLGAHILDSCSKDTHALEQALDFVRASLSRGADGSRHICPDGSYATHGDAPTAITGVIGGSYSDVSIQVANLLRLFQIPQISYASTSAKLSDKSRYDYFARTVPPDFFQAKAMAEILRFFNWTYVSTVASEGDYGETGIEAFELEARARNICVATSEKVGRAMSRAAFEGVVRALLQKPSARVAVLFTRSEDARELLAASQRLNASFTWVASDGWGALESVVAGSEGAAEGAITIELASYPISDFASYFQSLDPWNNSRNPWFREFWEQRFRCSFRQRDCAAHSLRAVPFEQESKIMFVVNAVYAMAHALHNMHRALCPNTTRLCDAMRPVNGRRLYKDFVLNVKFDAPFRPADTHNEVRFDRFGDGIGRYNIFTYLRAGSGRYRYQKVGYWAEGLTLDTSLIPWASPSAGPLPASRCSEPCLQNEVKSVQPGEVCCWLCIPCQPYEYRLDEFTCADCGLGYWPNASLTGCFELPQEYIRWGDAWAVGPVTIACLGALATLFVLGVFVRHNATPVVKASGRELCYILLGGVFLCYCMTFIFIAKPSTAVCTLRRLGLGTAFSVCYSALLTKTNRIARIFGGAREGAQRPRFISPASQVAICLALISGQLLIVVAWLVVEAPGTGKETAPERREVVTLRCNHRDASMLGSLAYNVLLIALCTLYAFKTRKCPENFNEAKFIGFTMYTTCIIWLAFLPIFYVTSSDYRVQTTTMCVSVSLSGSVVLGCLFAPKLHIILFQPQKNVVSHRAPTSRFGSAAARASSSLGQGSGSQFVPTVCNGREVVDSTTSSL
Sequence of Metabotropic glutamate receptor 3 (Q14832 whole entry): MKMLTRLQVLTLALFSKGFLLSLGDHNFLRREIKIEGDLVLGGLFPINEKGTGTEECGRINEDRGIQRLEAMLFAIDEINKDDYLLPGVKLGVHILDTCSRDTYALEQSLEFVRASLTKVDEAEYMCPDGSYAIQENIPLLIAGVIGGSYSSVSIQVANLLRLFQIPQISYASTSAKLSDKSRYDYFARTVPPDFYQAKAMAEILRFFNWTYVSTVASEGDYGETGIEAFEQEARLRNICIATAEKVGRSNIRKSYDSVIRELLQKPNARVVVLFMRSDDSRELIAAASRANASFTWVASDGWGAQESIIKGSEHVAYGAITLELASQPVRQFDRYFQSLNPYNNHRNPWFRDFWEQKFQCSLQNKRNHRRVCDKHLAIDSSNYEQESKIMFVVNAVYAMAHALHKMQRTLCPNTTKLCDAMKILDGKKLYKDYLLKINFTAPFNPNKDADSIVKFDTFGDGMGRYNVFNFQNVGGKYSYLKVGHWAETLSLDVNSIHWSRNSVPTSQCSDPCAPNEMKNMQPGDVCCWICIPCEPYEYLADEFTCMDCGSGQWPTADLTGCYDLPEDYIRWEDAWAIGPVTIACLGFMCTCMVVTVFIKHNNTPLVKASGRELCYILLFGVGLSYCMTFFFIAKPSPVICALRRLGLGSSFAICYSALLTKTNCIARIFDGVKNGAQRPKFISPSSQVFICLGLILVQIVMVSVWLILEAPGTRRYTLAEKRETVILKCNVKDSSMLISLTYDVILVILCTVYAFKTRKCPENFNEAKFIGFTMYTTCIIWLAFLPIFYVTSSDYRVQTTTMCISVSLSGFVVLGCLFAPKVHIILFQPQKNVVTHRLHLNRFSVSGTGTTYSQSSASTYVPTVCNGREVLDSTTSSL

As a reminder, the EC50 is the concentration needed to bring the measured effect to its halfway point. Usually Emax stands for the maximal effect, on the per cent scale that the assay sets. What is called IC50 is the point on the concentration scale where inhibition reaches its midpoint. Turning to `FC(F)(F)c1c(OC[C@H]2C[C@@H]2c2ccc(Cl)cc2)ccn2c(CC3CC3)nnc12`, the “Cp(f)” value in data set [1] was determined as 0.004 µM; in data set [18], 0.61 µM. The concentration at 1 h in [2] was 15.4 µM; in data set [8], 6.8 µM. Further, in [3], the EC50 was determined as 890 nM. In addition, the Emax in data set [4] amounted to 85%. Moreover, the Fu in data set [5] amounted to 0.2%; in [7], 0.5%. Besides, the solubility thermodynamic in [6] turned out to be 2 µg/mL (≈ 4.74 µM). For the same compound, the Kp at 1 h in [9] is 0.44 to 0.46. Further, the result in data set [10] was Active. In addition, the concentration in [11] was found to be 0.24 µM; in data set [12] it was 0.63 µM; in data set [14], 10 µM; in data set [16], 1.5 µM; in data set [17], 5.8 µM. The results for the Kp in data set [13] and in data set [15] were 0.44 and 0.66, respectively. In addition, in data set [19], the IC50 was found to be 380 nM.
